Results published in US9187492B2, “Pyripyropene derivative having ACAT2 inhibiting activity and stable to metabolizing enzymes” (School Juridical Person Kitasato Institute, priority 2010, dated 2015).
pIC50: −log10 of the molar value. Read-outs that look alike come from different tables or passages of the source.

What was measured:
[1] = Stability against metabolizing enzymes in the liver (hepatic microsome); details: time until remaining amount reached 50%, 37° C.; for half-life at 6 μg/mL: female, Sprague-Dawley (SD), rat, liver microsomes, pH 7.4, Half-life; for Half-life: female SD rat hepatic microsome, 6 μg/mL, pH 7.4
ACAT2 = target: T1, ACAT2 (Mus musculus, UniProt O88908); experiment: Measurement of ACAT2-inhibiting activity (murine hepatic microsome, [14C]cholesteryl oleate formation); type: biochemical
T1 construct: The resulting sediment was collected as a microsome fraction; from tissue; host or cells: mouse liver (hepatic microsome membrane fraction)
T1 sequence (O88908 1-525): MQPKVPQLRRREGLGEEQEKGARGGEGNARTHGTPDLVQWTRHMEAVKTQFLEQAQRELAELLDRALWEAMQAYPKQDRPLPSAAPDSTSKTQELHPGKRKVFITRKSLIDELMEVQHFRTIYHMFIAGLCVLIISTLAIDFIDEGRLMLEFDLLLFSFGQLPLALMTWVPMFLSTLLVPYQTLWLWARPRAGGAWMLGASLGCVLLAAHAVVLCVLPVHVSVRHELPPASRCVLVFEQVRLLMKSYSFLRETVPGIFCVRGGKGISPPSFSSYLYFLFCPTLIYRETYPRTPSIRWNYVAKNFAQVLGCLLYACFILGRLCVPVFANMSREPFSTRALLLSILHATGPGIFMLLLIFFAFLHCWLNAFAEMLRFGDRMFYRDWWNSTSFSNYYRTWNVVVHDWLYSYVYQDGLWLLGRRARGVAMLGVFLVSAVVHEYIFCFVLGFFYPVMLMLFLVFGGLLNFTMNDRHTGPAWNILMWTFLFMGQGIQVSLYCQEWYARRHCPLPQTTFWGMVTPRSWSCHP
Procedure: The enzyme source which was used was a membrane fraction derived from murine hepatic microsome. Mouse livers were homogenized in buffer solution A (50 mM Tris HCl solution (pH 7.8), 1 mM ethylene diamine tetraacetate, and 1 mM phenylmethanesulfonyl fluoride) using a Potter-type homogenizer (Tokyo-Riko). The homogenate was centrifuged at 12000×g, and the supernatant was subjected to ultracentrifugation at 100000×g. The resulting sediment was collected as a microsome fraction, and this fraction was adjusted so as to have a protein concentration of 5 mg/mL using buffer solution A.
As a control, 10 μL of methanol were used in place of the pyripyropene derivative.
The chloroform layer was evaporated to dryness and was used to spot a thin layer chromatography plate (silica gel plate, Merck, 0.5 mm thickness). Elution for separation was carried out using hexane/diethyl ether/acetic acid (70:30:1, v/v) as an eluant.
wherein the background is the radioactivity of a thin layer chromatography plate which was not spotted.

[2] = read-out: Inhibitory activity (concentration required for 50% inhibition of ACAT 2 = IC50); murine hepatic microsome membrane fraction, 5 min at 37° C.
[3] = relative to PRD 043; class symbols
[4] = murine hepatic microsome membrane fraction, 5 min at 37° C.; read-out: Inhibitory activity (concentration required for 50% inhibition of ACAT 2 = IC50)

| Specific activity ((IC50 of the test compound)/(IC50 of PRD 043)) (ACAT2; [3]) | pIC50 (ACAT2; [4]) | Compound | half-life at 6 μg/mL [1] | Half-life [1] | pIC50 (ACAT2; [2]) | Specific activity ((IC50 of the test compound)/(IC50 of PRD 043)) (ACAT2; relative to PRD 043; given as number) |
| --- | --- | --- | --- | --- | --- | --- |
|  |  | CC(=O)OCC1(C)C2C[C@H](OC(=O)c3ccccc3C)[C@@]3(C)Oc4cc(-c5cccnc5)oc(=O)c4[C@H](O)C3[C@@]2(C)CC[C@@H]1OC(C)=O (stereo partly shown) [PRD007, reference compound] | 1 h | <1 h |  |  |
|  |  | CC(=O)OCC1(C)C2C[C@H](OC(=O)c3ccc(C)cc3)[C@@]3(C)Oc4cc(-c5cccnc5)oc(=O)c4[C@H](O)C3[C@@]2(C)CC[C@@H]1OC(C)=O (stereo partly shown) [PRD009, reference compound] | 1 h | <1 h |  |  |
|  |  | CC(=O)OCC1(C)C2C[C@H](OC(=O)C3CCCCC3)[C@@]3(C)Oc4cc(-c5cccnc5)oc(=O)c4[C@H](O)C3[C@@]2(C)CC[C@@H]1OC(C)=O (stereo partly shown) [PRD021, reference compound] | 1 h | <1 h |  |  |
|  |  | CCc1ccc(C(=O)O[C@H]2CC3C(C)(COC(C)=O)[C@@H](OC(C)=O)CC[C@]3(C)C3[C@@H](O)c4c(cc(-c5cccnc5)oc4=O)O[C@@]32C)cc1 (stereo partly shown) [PRD024, reference compound] | 1 h | <1 h |  |  |
|  |  | CC(=O)OCC1(C)C2C[C@H](OC(=O)c3cccc(Br)c3)[C@@]3(C)Oc4cc(-c5cccnc5)oc(=O)c4[C@H](O)C3[C@@]2(C)CC[C@@H]1OC(C)=O (stereo partly shown) [PRD025, reference compound] | 1 h | <1 h |  |  |
|  |  | CC(=O)OCC1(C)C2C[C@H](OC(=O)c3ccccc3F)[C@@]3(C)Oc4cc(-c5cccnc5)oc(=O)c4[C@H](O)C3[C@@]2(C)CC[C@@H]1OC(C)=O (stereo partly shown) [PRD026, reference compound] | 1 h | <1 h |  |  |
|  |  | COc1cccc(C(=O)O[C@H]2CC3C(C)(COC(C)=O)[C@@H](OC(C)=O)CC[C@]3(C)C3[C@@H](O)c4c(cc(-c5cccnc5)oc4=O)O[C@@]32C)c1 (stereo partly shown) [PRD043, reference compound] | ≥ 9 h | >9 h | < 8.00 | 1 |
| +++ (10<specific activity≦20) | 9.00 to 9.30 | COc1ccc(C(OC)O[C@H]2CC3C4(C)CO[C@@H](c5ccccc5)O[C@H]4CC[C@]3(C)C3[C@@H](O)c4c(cc(-c5cccnc5)oc4=O)O[C@@]32C)cc1 (stereo partly shown) [PRD073, 1,11-O-benzylidene-1,7,11-trideacetyl-7-O-(1-methoxy-1-p-methoxyphenyl)methylpyripyropene A] | ≥ 9 h | >9 h |  |  |
| +++ (10<specific activity≦20) | 9.00 to 9.30 | CC(C)C(=O)OCC1(C)C2C[C@H](OC(=O)C3CCCCC3)[C@@]3(C)Oc4cc(-c5cccnc5)oc(=O)c4[C@H](O)C3[C@@]2(C)CC[C@@H]1OC(=O)C(C)C (stereo partly shown) [PRD074, 7-O-cyclohexanecarbonyl-1,11-O-diisobutyryl-1,7,11-trideacetylpyripyropene A] | ≥ 9 h | >9 h |  |  |
| +++ (10<specific activity≦20) | 9.00 to 9.30 | CC(C)C(=O)OCC1(C)C2C[C@H](OC(=O)c3ccc([N+](=O)[O-])cc3)[C@@]3(C)Oc4cc(-c5cccnc5)oc(=O)c4[C@H](O)C3[C@@]2(C)CC[C@@H]1OC(=O)C(C)C (stereo partly shown) [PRD079, 7-O-p-nitrobenzoyl-1,11-O-diisobutyryl-1,7,11-trideacetylpyripyropene A] | ≥ 9 h | >9 h |  |  |
| +++ (10<specific activity≦20) | 9.00 to 9.30 | CC12CO[C@@H](c3ccccc3)O[C@H]1CC[C@@]1(C)C2C[C@H](OC(=O)C2CCCCC2)[C@@]2(C)Oc3cc(-c4cccnc4)oc(=O)c3[C@H](O)C12 (stereo partly shown) [PRD080, 1,11-O-benzylidene-7-O-cyclohexanecarbonyl-1,7,11-trideacetylpyripyropene A] | > 9 h |  |  |  |
| ++++ (20<specific activity) | 9.00 to 9.30 | CC(=O)OCC1(C)C2C[C@H](OC(=O)c3ccc(C#N)cc3)[C@@]3(C)Oc4cc(-c5cccnc5)oc(=O)c4[C@H](O)C3[C@@]2(C)CC[C@@H]1OC(=O)C(C)C (stereo partly shown) [PRD119, 7-O-p-cyanobenzoyl-1,7-dideacetyl-1-O-isobutyrylpyripyropene A] | ≥ 9 h | >9 h |  |  |
| +++ (10<specific activity≦20) | 9.00 to 9.30 | CC(=O)OCC1(C)C2C[C@H](OC(=O)c3ccc(C#N)cc3)[C@@]3(C)Oc4cc(-c5cccnc5)oc(=O)c4[C@H](O)C3[C@@]2(C)CC[C@@H]1OC(=O)c1ccccc1 (stereo partly shown) [PRD121, 7-O-p-cyanobenzoyl-1,7-dideacetyl-1-O-benzoylpyripyropene A] | ≥ 9 h | >9 h |  |  |
| +++ (10<specific activity≦20) | 9.00 to 9.30 | CC12CO[C@@H](c3ccccc3)O[C@H]1CC[C@@]1(C)C2C[C@H](OC(=O)c2ccccc2)[C@@]2(C)Oc3cc(-c4cccnc4)oc(=O)c3[C@H](O)C12 (stereo partly shown) [PRD122, 1,11-O-benzylidene-7-O-benzoyl-1,7,11-trideacetylpyripyropene A] | ≥ 9 h | >9 h |  |  |
| ++++ (20<specific activity) | > 9.30 | CN(C)c1ccc([C@@H]2OCC3(C)C4C[C@H](OC(=O)c5ccc(C#N)cc5)[C@@]5(C)Oc6cc(-c7cccnc7)oc(=O)c6[C@H](O)C5[C@@]4(C)CC[C@@H]3O2)cc1 (stereo partly shown) [PRD123, 1,11-O-p-dimethylaminobenzylidene-7-O-p-cyanobenzoyl-1,7,11-trideacetylpyripyropene A] | ≥ 9 h | >9 h |  |  |
| +++ (10<specific activity≦20) | 9.00 to 9.30 | Cc1ccccc1[C@@H]1OCC2(C)C3C[C@H](OC(=O)c4ccc(C#N)cc4)[C@@]4(C)Oc5cc(-c6cccnc6)oc(=O)c5[C@H](O)C4[C@@]3(C)CC[C@@H]2O1 (stereo partly shown) [PRD125, 1,11-O-o-methylbenzylidene-7-O-p-cyanobenzoyl-1,7,11-trideacetylpyripyropene A] | ≥ 9 h | >9 h |  |  |
| +++ (10<specific activity≦20) | 9.00 to 9.30 | Cc1ccc([C@@H]2OCC3(C)C4C[C@H](OC(=O)c5ccc(C#N)cc5)[C@@]5(C)Oc6cc(-c7cccnc7)oc(=O)c6[C@H](O)C5[C@@]4(C)CC[C@@H]3O2)cc1 (stereo partly shown) [PRD126, 1,11-O-p-methylbenzylidene-7-O-p-cyanobenzoyl-1,7,11-trideacetylpyripyropene A] | ≥ 9 h | >9 h |  |  |

| Compound | Specific activity ((IC50 of the test compound)/(IC50 of PRD 043)) (ACAT2; [3]) | pIC50 (ACAT2; [4]) | half-life at 6 μg/mL [1] | Half-life [1] | pIC50 (ACAT2; [2]) | Specific activity ((IC50 of the test compound)/(IC50 of PRD 043)) (ACAT2; relative to PRD 043; given as number) |
| --- | --- | --- | --- | --- | --- | --- |
| CC(C)C(=O)OCC1(C)C2C[C@H](OC(=O)c3ccc(C#N)cc3)[C@@]3(C)Oc4cc(-c5cccnc5)oc(=O)c4[C@H](O)C3[C@@]2(C)CC[C@@H]1OC(=O)C(C)C (stereo partly shown) [PRD056, reference compound] | − (0.1≦specific activity<1) |  | ≥ 9 h | >9 h | < 8.00 |  |
| CC(=O)O[C@H]1CC[C@@]2(C)C(C[C@H](OC(=O)c3ccc(C#N)cc3)[C@@]3(C)Oc4cc(-c5cccnc5)oc(=O)c4[C@H](O)C23)C1(C)C(=O)O (stereo partly shown) [PRD069, 7-O-p-cyanobenzoyl-11-deacetoxymethyl-7-deacetyl-11-carboxy-pyripyropene A] | ++++ (20<specific activity) | > 9.30 | ≥ 9 h | >9 h |  |  |
| COC(=O)C1(C)C2C[C@H](OC(=O)c3ccc(C#N)cc3)[C@@]3(C)Oc4cc(-c5cccnc5)oc(=O)c4[C@H](O)C3[C@@]2(C)CC[C@@H]1OC(C)=O (stereo partly shown) [PRD070, 7-O-p-cyanobenzoyl-11-deacetoxymethyl-7-deacetyl-11-methoxy-carbonylpyripyropene A] | +++ (10<specific activity≦20) | 9.00 to 9.30 | > 9 h |  |  |  |
| COc1ccc(CNC(=O)C2(C)C3C[C@H](OC(=O)c4ccc(C#N)cc4)[C@@]4(C)Oc5cc(-c6cccnc6)oc(=O)c5[C@H](O)C4[C@@]3(C)CC[C@@H]2OC(C)=O)c(OC)c1 (stereo partly shown) [PRD071, 7-O-p-cyanobenzoyl-11-deacetoxymethyl-7-deacetyl-11-(2,4-dimethoxybenzylamino)carbonylpyripyropene A] | ++++ (20<specific activity) | > 9.30 | ≥ 9 h | >9 h |  |  |
